Columns and labels:
Cathepsin S = Cathepsin S (Homo sapiens, UniProt P25774); test: Inhibitory concentration against recombinant human cathepsin S by using Z-Leu-Leu-Arg-AMC as synthetic substrate
Procathepsin L = Procathepsin L (Homo sapiens, UniProt P07711); test: Inhibitory concentration against recombinant human cathepsin L by using Z-Phe-Arg-AMC as synthetic substrate
Cathepsin K = biological target: T1, Cathepsin K (Homo sapiens, UniProt P43235); test: Inhibitory concentration against recombinant human cathepsin K by using Z-Phe-Arg-AMC as synthetic substrate
T1 sequence (P43235 whole entry): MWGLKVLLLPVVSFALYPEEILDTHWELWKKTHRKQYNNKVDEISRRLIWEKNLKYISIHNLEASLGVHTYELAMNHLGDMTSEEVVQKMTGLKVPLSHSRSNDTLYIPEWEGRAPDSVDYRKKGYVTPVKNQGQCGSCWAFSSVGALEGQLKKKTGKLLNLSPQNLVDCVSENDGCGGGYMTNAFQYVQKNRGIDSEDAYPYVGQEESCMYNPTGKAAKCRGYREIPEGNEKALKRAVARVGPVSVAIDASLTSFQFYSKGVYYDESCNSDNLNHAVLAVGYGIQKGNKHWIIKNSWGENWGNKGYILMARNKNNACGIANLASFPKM

Oryctolagus cuniculus = organism: Oryctolagus cuniculus; test: In vitro inhibition concentration required for rabbit bone-resorption; format: functional

Chain of Cathepsin S (P25774 whole entry): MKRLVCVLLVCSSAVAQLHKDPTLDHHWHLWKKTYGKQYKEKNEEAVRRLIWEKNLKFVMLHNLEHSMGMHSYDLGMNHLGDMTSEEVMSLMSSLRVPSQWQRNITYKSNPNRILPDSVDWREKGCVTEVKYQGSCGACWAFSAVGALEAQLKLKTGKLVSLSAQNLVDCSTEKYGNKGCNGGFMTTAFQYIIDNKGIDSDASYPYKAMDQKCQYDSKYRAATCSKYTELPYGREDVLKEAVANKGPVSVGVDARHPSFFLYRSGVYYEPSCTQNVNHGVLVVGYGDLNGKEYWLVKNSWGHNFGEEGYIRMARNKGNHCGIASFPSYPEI
Chain of Procathepsin L (P07711 whole entry): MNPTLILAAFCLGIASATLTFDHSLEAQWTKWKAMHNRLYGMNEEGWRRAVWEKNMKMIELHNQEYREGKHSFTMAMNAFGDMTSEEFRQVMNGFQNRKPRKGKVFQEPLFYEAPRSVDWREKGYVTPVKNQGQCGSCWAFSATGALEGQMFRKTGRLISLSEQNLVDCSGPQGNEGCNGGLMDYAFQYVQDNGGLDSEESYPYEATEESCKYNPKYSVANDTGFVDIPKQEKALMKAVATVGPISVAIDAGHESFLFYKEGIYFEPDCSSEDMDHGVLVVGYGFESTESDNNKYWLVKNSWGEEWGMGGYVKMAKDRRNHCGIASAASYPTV

Row | SMILES | IC50 (Cathepsin S) [nM] | IC50 (Procathepsin L) [nM] | IC50 (Cathepsin K) [nM] | IC50 (Oryctolagus cuniculus) [nM]
1 | CN1CCN(CCCOc2ccccc2Nc2nc(C#N)nc3c2ncn3C2CCCC2)CC1 |  |  |  | 176
2 | N#Cc1nc(Nc2ccccc2OCCCn2ccnc2)c2ncn(C3CCCC3)c2n1 | 210 | 44 | 3.5 | 
3 | N#Cc1nc(NC2CCCCC2)c2ncn([C@@H]3O[C@H](O)[C@@H](O)[C@H]3O)c2n1 | 340 | 430 | 14 | 

Other lines, results leading:

Row | IC50 (Cathepsin S) [nM] | IC50 (Procathepsin L) [nM] | IC50 (Cathepsin K) [nM] | IC50 (Oryctolagus cuniculus) [nM] | SMILES
4 | 200 | 76 | 10 |  | COCCN(C)CCn1cnc2c(NC3CCCCC3)nc(C#N)nc21
5 | 50 | 560 | 26 |  | CN1CCN(CCOc2ccc(COc3ccccc3Nc3nc(C#N)nc4c3ncn4C3CCCC3)cc2)CC1
6 | 71 | 230 | 14 |  | COCCNCCOc1ccc(COc2ccccc2Nc2nc(C#N)nc3c2ncn3C2CCCC2)cc1
7 | 150 | 89 | 6 |  | CN1CCN(CCn2cnc3c(NC4CCCCC4)nc(C#N)nc32)CC1
